Assay in all cases: inhibition of tumour cell growth, NCI panel, 48 h
The test system of experiment [1] is OVCAR-4 ovarian.
The test system of experiment [2] is SK-MEL-28 melanoma.
Experiment [3] concerns SK-OV-3 ovarian.
Experiment [4] concerns K-562 leukemia.
Experiment [5] deals with OVCAR-3 ovarian.
The subject of experiment [6] is SF-539 CNS.
Experiment [7] deals with SF-295 CNS.
In experiment [8] the test system is SK-MEL-2 melanoma.
Experiment [9] deals with T-47D breast.
Experiment [10] relates to HCC-2998 colon.

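Cells were grown in 96-well plates and exposed to each compound for 48 hours at five concentrations; endpoints were interpolated linearly between bracketing concentrations, or set to the highest concentration if not reached. GI50 = concentration required for 50% inhibition of growth. At the TGI there is no net growth.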

Regarding `[Au+].[Au+].[Au+].[c-]1nccn1Cc1ccccc1.[c-]1nccn1Cc1ccccc1.[c-]1nccn1Cc1ccccc1`, the GI50 is 12.7 µM in experiment [1]; 2.71 µM in experiment [2]; 19.4 µM in experiment [3]; 3.82 µM in [4]; 2.33 µM in experiment [5]; 2.96 µM in [6]. Also, the GI50 in [7] is 10.5 µM; in experiment [8], 1.98 µM; in [9], 7.42 µM; in [10], 14.4 µM. Besides, the TGI in experiment [1] was 44.1 µM; in [2], 6.15 µM; in experiment [3], 36.8 µM; in [4], 25 µM; in [5] it was 5.27 µM; in [6], 9.15 µM. Moreover, the TGI came out at 40.2 µM in [7], 3.9 µM in experiment [8], 36.8 µM in experiment [9] and 37.9 µM in experiment [10].

As for `N=C(N)SCc1cccc(-c2nc3ccccc3c(=O)o2)c1`, the TGI in experiment [1], in experiment [2], in [3], in experiment [4], in [5] and in [6] was more than 100 µM throughout. Also, the TGI in [7], in experiment [8], in [9] and in [10] was more than 100 µM throughout.

As to `C[C@]12CC[C@H](O)C[C@H]1CC[C@@H]1[C@@H]2CC[C@]2(C)[C@@H](C3=CC(=O)OC3)CC[C@]12O`, the GI50 in experiment [1] is 0.0389 µM; in [7], 0.0292 µM. Besides, the TGI was determined as 0.226 µM in [1]; 2.01 µM in experiment [2]; 0.818 µM in experiment [3]; 1.42 µM in [4]; 0.204 µM in experiment [5]; 0.16 µM in experiment [6]. For the same compound, the TGI in experiment [7] was 0.0959 µM; in [8], 1.56 µM; in [9] it was 0.858 µM; in experiment [10] it was 0.675 µM.

As to `CC(=O)/C=C/c1ccc(C#Cc2ccccc2)s1`, the GI50 is 13.1 µM in [1]; 15.5 µM in [2]; 17.3 µM in [3]; 19.8 µM in experiment [4]; 15.5 µM in experiment [5]; 17.3 µM in experiment [6]. In addition, the GI50 in experiment [7] was 19.1 µM; in [8], 20.5 µM; in experiment [9], 11.4 µM; in experiment [10], 14.7 µM. The TGI in experiment [1] was found to be 28.6 µM; in [2], 28.8 µM; in experiment [3], 31.1 µM; in [4], 56.4 µM; in experiment [5] it was 29.6 µM; in experiment [6], 31 µM. The TGI turned out to be 42.7 µM in experiment [7], 35.4 µM in [8], 28.4 µM in experiment [9] and 27.8 µM in experiment [10].

Take `Oc1cn(-c2ccc(Cl)cc2)nc1-c1n[nH]c(=S)n1C1CCCCC1`: the GI50 is 31.8 µM in experiment [1]; 0.639 µM in experiment [2]; 0.451 µM in [3]; less than 0.0427 µM in experiment [4]; less than 0.0456 µM in [5]; 0.312 µM in experiment [6]. Also, the GI50 is less than 0.0447 µM in experiment [7], more than 52.3 µM in experiment [8], 6.62 µM in [9] and 2.33 µM in experiment [10]. The TGI in experiment [1] was more than 100 µM; in experiment [2], more than 100 µM; in experiment [3] it was more than 44.5 µM; in experiment [5], 0.424 µM; in experiment [6], 1.11 µM; in experiment [7], 0.479 µM. Besides, the TGI in experiment [8] is more than 100 µM; in [9], more than 100 µM; in experiment [10] it was 14.3 µM.

On to `COCCOc1cnc2ccn([C@H](C)c3nnc4c(F)cc(-c5cnn(C)c5)cn34)c(=O)c2c1`, for which the GI50 is 52 µM in experiment [1]; more than 100 µM in experiment [2]; more than 100 µM in experiment [3]; more than 100 µM in [4]; more than 100 µM in experiment [5]; more than 100 µM in experiment [6]. Besides, the GI50 in experiment [7] was 23.4 µM; in [8], more than 100 µM; in experiment [9], more than 100 µM; in [10], more than 100 µM. For the same compound, the TGI in experiment [1], in experiment [2], in experiment [3], in [4], in [5] and in experiment [6] was more than 100 µM each time. Moreover, the TGI in experiment [7], in experiment [8], in experiment [9] and in experiment [10] was more than 100 µM each time.

Take `COc1cc2ncn(-c3cc(OCCc4ccccc4)c(C(N)=O)s3)c2cc1OC`: the GI50 in experiment [1], in [2], in experiment [3], in experiment [4], in [5] and in [6] was more than 25 µM in each case. For the same compound, the GI50 in [7], in [8], in experiment [9] and in experiment [10] was more than 25 µM in each case. Moreover, the TGI in experiment [1], in [2], in experiment [3], in experiment [4], in [5] and in experiment [6] was more than 25 µM in each case. Also, the TGI in experiment [7], in [8], in experiment [9] and in experiment [10] was more than 25 µM in each case.

As for `CCOC(=O)CNC(=O)c1ccccc1Nc1ccnc(C(F)(F)F)c1`, the GI50 in [1] was 43.7 µM; in experiment [2], 28.1 µM; in [3], more than 59.5 µM; in [4] it was 24 µM; in experiment [5], 20.2 µM; in experiment [6], 28 µM. Besides, the GI50 was 54.4 µM in experiment [7], 44.6 µM in [8], 41.9 µM in [9] and 71.3 µM in experiment [10]. The TGI was more than 100 µM in [1]; more than 83.3 µM in experiment [2]; more than 100 µM in experiment [3]; more than 69.4 µM in [4]; 56.9 µM in experiment [5]; more than 100 µM in experiment [6]. Moreover, the TGI in [7] is more than 100 µM; in experiment [8], more than 72.4 µM; in experiment [9], more than 100 µM; in experiment [10], more than 100 µM.

For the origin of these results see PubChem BioAssay (NCI).
